Where a name gives a salt, the structure may show the parent alone. Read-outs that look alike come from different tables or passages of the source.
What was measured:
BCL-XL = BCL-XL (Homo sapiens (Human), UniProt Q07817); assay: Protein-protein interaction assay BCL-XL/Bad BH3 peptide (BCL-XL assay, TR-FRET); type: binding; conditions: read-out: BCL-XL Assay IC50 (median)
Method: Assay 2 Protein-Protein Interaction Assay: BCL-XL/Bad BH3 Peptide (BCL-XL Assay)
The dose-dependent inhibition by the compounds described in this invention of the interaction between BCL-XL and the BH3 domain of Bad (both human) was determined using a steady state binding competition assay with time-resolved fluorescence energy transfer (TR-FRET) readout. For that purpose BCL-XL (amino acids 1-212, C-terminal fused to a hexahistidine (6×His) tag (SEQ ID 3) and a synthetic Bad BH3-derived peptide of sequence Biotin-PEG2-PEG2-[…]-Nle-[…]-amide (SEQ ID 4) served as protein receptor and tracer ligand respectively. The recombinant BCL-XL protein (expressed in E. coli) was purchased from BPS Bioscience (San Diego, Calif., USA). The Bad BH3-derived peptide can be obtained from e.g. Biosyntan (Berlin, Germany).
In the assay 11 different concentrations of each compound (0.1 nM, 0.33 nM, 1.1 nM, 3.8 nM, 13 nM, 44 nM, 0.15 μM, 0.51 μM, 1.7 μM, 5.9 μM and 20 μM) were typically measured as duplicates in the same microtiter plate. For that, 100-fold concentrated DMSO solutions were prepared by serial dilutions (1:3.4) of a 2 mM stock solution in a clear, 384-well microtiter plate (Greiner Bio-One, Frickenhausen, Germany). From there, 50 nl were transferred in a dark test plate (Greiner Bio-One, Frickenhausen, Germany). The assay was initiated by addition of 2 μL of a 2,5-fold concentrated His-BCL-XL solution (usually for a 1 nM end concentration in 5 μL reaction volume) in aqueous assay buffer [50 mM Tris/HCl pH 7, 100 mM sodium chloride (NaCl), 50 mM potassium fluoride (KF), 0.005% Tween-20, 2 mM DTT, 0.1% bovine gamma globulin (BGG)] to the compounds in the assay plate. This was followed by a 10-minute incubation step at 22° C. for pre-equilibration of the putative complex between His-BCL-XL and the compounds. After that, 3 μL of a 1.67-fold concentrated solution (in assay buffer) consisting of Bad BH3-derived peptide (1 nM end concentration) and TR-FRET detection reagents [1.67 nM anti-His-Eu cryptate and 1.67 nM streptavidin-XL665 (both from Cisbio Bioassays, Codolet, France)], were added.
The mixture was incubated in the dark for one hour at 22° C. and then overnight at 4° C. The formation of BCL-XL/Bad complexes was determined by measuring the resonance energy transfer of the anti-His- Eu-cryptate antibody to the streptavidin-XL665 present in the reaction. For that purpose, the fluorescence emission at 620 nm and 665 nm after excitation at 330-350 nm was measured in a TR-FRET measuring instrument, for instance a Rubystar or a Pherastar (both from BMG Lab Technologies, Offenburg, Germany) or a Viewlux (Perkin-Elmer). The ratio of the emission at 665 nm and at 622 nm was used as indicator of the amount of BCL-XL/Bad complexes present.
The resulting data (ratio) were normalized, taking 0% inhibition as the mean value of control measurements (usually 32 data points) where all reagents were included. In this case 50 nl DMSO were used instead of compounds. […] IC50 values were determined by regression analysis based on a 4 parameter equation (minimum, maximum, IC50, Hill; Y=Max+(Min−Max)/(1+(X/IC50)^Hill) using the Screener Software (Genedata).

SUDHL5 cells = assay: Induction of caspase-3/7 activity in SUDHL5 cells (Assay 4); type: cell-based
Procedure, shortened: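 Read-out: Caspase-Glo 3/7 luminescence (1 h, 37 °C) after cells, plated overnight, were treated with compounds for 3 h at 37 °C. Signal corrected for cell-free medium background and expressed relative to DMSO control mean.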

[1] = read-out: Caspase SUDHL5 EC50 (median), caspase-3/7 induction, 3 h
[2] = Homo sapiens, SU-DHL-5, 3 h, caspase-3/7 induction, 3 h, read-out: Caspase SUDHL5 EC50 (median)

Sequence of BCL-XL (Q07817 1-212): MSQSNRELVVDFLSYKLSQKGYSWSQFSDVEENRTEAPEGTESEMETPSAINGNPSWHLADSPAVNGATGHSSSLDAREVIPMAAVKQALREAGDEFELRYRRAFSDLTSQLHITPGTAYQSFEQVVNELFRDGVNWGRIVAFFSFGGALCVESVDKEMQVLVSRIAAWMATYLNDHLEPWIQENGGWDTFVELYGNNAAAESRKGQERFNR

SMILES | IC50 (BCL-XL) [µM] | EC50 (SUDHL5 cells; [1]) [µM] | EC50 (SUDHL5 cells; Homo sapiens, SU-DHL-5, 3 h, read-out: Caspase SUDHL5 EC50 (median), caspase-3/7 induction, 3 h) [µM] | EC50 (SUDHL5 cells; caspase-3/7 induction, 3 h, read-out: Caspase SUDHL5 EC50 (median)) [µM] | EC50 (SUDHL5 cells; [2]) [µM]
Cc1c2c(nn1C)C(C1CC1)OCCCCn1c(C(=O)O)c(CCCOc3cccc4ccccc34)c3ccc(Cl)c-2c31 (single isomer, unassigned; enantiomer 2) [Example 36, (−)-4-chloro-15-cyclopropyl-2,3-dimethyl-7-{3-[(naphthalen-1-yl)oxy]propyl}-2,10,11,12,13,15-hexahydropyrazolo[4′,3′:9,10][1,6]oxazacycloundecino[8,7,6-hi]indole-8-carboxylic Acid N-ethylethanamine Salt (Enantiomer 2)] | 13.8 | > 33 | – | – | –
Cc1c2c(nn1C)C(CCN1CCOCC1)OCCCCn1c(C(=O)O)c(CCCOc3cccc4cc(F)ccc34)c3ccc(Cl)c-2c31 (single isomer, unassigned; enantiomer 1) [Example 17, 4-chloro-7-{3-[(6-fluoronaphthalen-1-yl)oxy]propyl}-2,3-dimethyl-15-[2-(morpholin-4-yl)ethyl]-2,10,11,12,13,15-hexahydropyrazolo[4′,3′:9,10][1,6]oxazacycloundecino[8,7,6-hi]indole-8-carboxylic Acid—N-ethylethanamine (Enantiomer 1)] | > 20 | – | 0.0058 | – | –
CCc1c2c(nn1C)C(CCO)OCCCCn1c(C(=O)O)c(CCCOc3cccc4cc(F)ccc34)c3ccc(Cl)c-2c31 (single isomer, unassigned; enantiomer 2) [Example 46, (−)-4-chloro-3-ethyl-7-{3-[(6-fluoronaphthalen-1-yl)oxy]propyl}-15-(2-hydroxyethyl)-2-methyl-2,10,11,12,13,15-hexahydropyrazolo[4′,3′:9,10][1,6]oxazacycloundecino[8,7,6-hi]indole-8-carboxylic Acid (Enantiomer 2)] | > 20 | – | – | 4.9 | –
CCc1c2c(nn1C)C(C1CC1)OCCCCn1c(C(=O)O)c(CCCOc3cccc4cc(F)ccc34)c3ccc(Cl)c-2c31 (racemic) [Example 38, (rac)-4-chloro-(15-rac)-cyclopropyl-3-ethyl-7-{3-[(6-fluoronaphthalen-1-yl)oxy]propyl}-2-methyl-2,10,11,12,13,15-hexahydropyrazolo[4′,3′:9,10][1,6]oxazacycloundecino[8,7,6-hi]indole-8-carboxylic Acid] | > 20 | – | – | – | 3.6
CCC1OCCCCn2c(C(=O)O)c(CCCOc3cccc4ccccc34)c3ccc(Cl)c(c32)-c2c1nn(C)c2C (single isomer, unassigned; enantiomer 1) [Example 29, (+)-4-chloro-15-ethyl-2,3-dimethyl-7-{3-[(naphthalen-1-yl)oxy]propyl}-2,10,11,12,13,15-hexahydropyrazolo[4′,3′:9,10][1,6]oxazacycloundecino[8,7,6-hi]indole-8-carboxylic Acid—N-ethylethanamine Salt (Enantiomer 1)] | 14.2 | 0.84 | – | – | –
Cc1c2c(nn1C)C(CCN1CCOCC1)OCCCCn1c(C(=O)O)c(CCCOc3cccc4cc(F)ccc34)c3ccc(Cl)c-2c31 (single isomer, unassigned; enantiomer 2) [Example 18, 4-chloro-7-{3-[(6-fluoronaphthalen-1-yl)oxy]propyl}-2,3-dimethyl-15-[2-(morpholin-4-yl)ethyl]-2,10,11,12,13,15-hexahydropyrazolo[4′,3′:9,10][1,6]oxazacycloundecino[8,7,6-hi]indole-8-carboxylic Acid (Enantiomer 2)] | > 20 | – | – | – | 0.53

Source: patent US11440923B2, “Substituted macrocyclic indole derivatives” (Bayer Aktiengesellschaft, priority 2017, dated 2022)
